Measured values: PMC9268429, “Liposomal Form of 2,4-Dinitrophenol Lipophilic Derivatives as a Promising Therapeutic Agent for ATP Synthesis Inhibition” (Nanomaterials, 2022)
pIC50: −log10 of the molar value. “Also recorded” adds a separate entry of the source. Where two headings read alike, the source gives them in different places.

Columns and labels:
[1] = system: 4T1-Luc cells; format: cell-based, murine; conditions: 200 µM, 1% DMSO; for ATP synthesis inhibition (decrease of luminescence): free compounds, 2 h and 4 h
Experimental: ATP synthesis in real time in vitro was monitored by modified luciferin–luciferase assay using 4T1-Luc cells expressing luciferase. Briefly, 4T1-Luc cells were seeded in black 96-well plates (Greiner, France) (1 × 10^4 cells/well) 48 h before the experiment. Cell medium was replaced with the mixtures (150 µL/well) of D-luciferin (150 µg/mL, saturating concentration) alone (control) and with examined substance (200 µM of free 2,4-DNP or its derivatives or their liposomal forms) in RPMI 1640 medium (10% FBS, 4.5 g/L glucose, 100 U/mL penicillin, 100 µg/mL streptomycin и 0.25 µg/mL Gibco amphotericin), plate was put into the Luminometer chamber (EnSpire multimode plate reader, Perkin Elmer, USA), and kinetic of luciferin–luciferase reaction was detected at 37 °C (flashes/time 0.1 s). 2,4-DNP esters were dissolved in DMSO before the use. The total concentration of DMSO in final solution per well was 1%.
The inhibition effect was expressed as (3) Decrease of luminescence=[RLU]max−[RLU]t/[RLU]max×100%, where [RLU]max—relative luminescence units at the maximum of the kinetic profile; [RLU]t—relative luminescence units at certain time point.

[2] = system: AML12 cells; assay: in vitro; format: cell-based, mouse; conditions: AML12, 24 h incubation, WST-1, free compounds in 1% DMSO; read-out: IC50 (cytotoxicity)
Experimental: (§1) Murine breast cancer cell line expressing luciferase (4T1-Luc) and hepatocytes isolated from the normal liver of a 3-month-old mouse (AML12) were purchased from ATCC, (CRL-2539-LUC2 and CRL-2254). The cells were cultivated in RPMI 1640 or DMEM-F12 with 10% FBS, 4.5 g/L glucose, 100 U/mL penicillin, 100 µg/mL streptomycin and 0.25 µg/mL Gibco amphotericin at 37 °C, 5% CO2.
(§2) 4T1-Luc or AML12 cells were seeded in a 96-well plate (1 × 10^4 cells/well) in 200 µL/well of complete RPMI or DMEM-F12 medium and incubated at 37 °C with 5% CO2 for 48 h. Then, the medium was replaced with 100 µL/well RPMI or DMEM-F12 medium in the absence (control) or presence of various amounts of the tested compounds and incubated at 37 °C with 5% CO2 for 24 h; 10 µL/well WST-1 solution (CELLPRO-RO Roche, St. Louis, MO, USA) was added to each well and incubated under culture conditions for 2 h. The absorbance of the samples was measured at 450 nm.

[3] = format: physicochemical; conditions: octanol/distilled water (pH 5.5), mean ± StD
Experimental: Lipophilicity of the obtained 2,4-DNP derivatives was measured by octanol–water equilibrium method. Before the experiment, we mixed octanol and water in a flask, shook it vigorously, and then waited for the two phases separation. After reaching of equilibrium, the two phases are mutually saturated with one another. Next, 0.5 mg of each test compound was dissolved in 1 mL of octanol phase, and then 1 mL of distillated water phase was added (pH 5.5) and properly stirred for 1 min three times. The mixture was incubated under vigorous stirring for 1 h. Next, the mixture was centrifugated to separate octanol–water phases. The concentration of the compound was determined in octanol and water using HPLC method. The octanol–water partition coefficient was estimated as follows:(1) LogP=Log[C]octanol/[C]water
Concentration of 2,4-DNP and its esters was measured using high-performance liquid chromatography (HPLC) (Knauer Smart line, Berlin, Germany) with UV-detector and a reversed-phase shim-pack 100-5-C18 column (Kromasil, […], particle size 5 μm). The mobile phase was a mixture of acetonitrile and 0.1% citric acid water solution (60/40, v/v). The mobile phase flow-rate was 0.8 mL/min, the injection volume was […], and the detection wavelength was set at 275 nm. Chromatograms were analyzed using ChromGate version 3.3.2 software (Berlin, Germany). The retention time is 4.5 min for 2,4-DNP and 6.5 min for esters.

[4] = pH 7.4
Experimental: Procedure: All samples were dispersed in 10 mM PBS (pH = 7. 4). Then the aliquots were incubated at a room tempera-
ture and at 65 °C for 1 h. After that we made several TLC for each sample representing heated and non-heated sub-

[5] = in vitro; format: cell-based, mouse; conditions: mouse; AML12, 24 h incubation, WST-1, free compounds in 1% DMSO; read-out: IC50 (cytotoxicity)
Experimental: as §1, §2

[6] = system: 4T1-Luc cells; assay: cells; format: cell-based, murine; conditions: Mus musculus, read-out: IC50 (cytotoxicity)
Experimental: as §1, §2

[7] = molecular target: luciferase (Photinus pyralis, UniProt P08659); assay: Control: addition to the luciferin–luciferase mixture; format: biochemical; conditions: 200 µM added to the luciferin–luciferase mixture; data are not presented
luciferase, sequence (P08659 whole entry): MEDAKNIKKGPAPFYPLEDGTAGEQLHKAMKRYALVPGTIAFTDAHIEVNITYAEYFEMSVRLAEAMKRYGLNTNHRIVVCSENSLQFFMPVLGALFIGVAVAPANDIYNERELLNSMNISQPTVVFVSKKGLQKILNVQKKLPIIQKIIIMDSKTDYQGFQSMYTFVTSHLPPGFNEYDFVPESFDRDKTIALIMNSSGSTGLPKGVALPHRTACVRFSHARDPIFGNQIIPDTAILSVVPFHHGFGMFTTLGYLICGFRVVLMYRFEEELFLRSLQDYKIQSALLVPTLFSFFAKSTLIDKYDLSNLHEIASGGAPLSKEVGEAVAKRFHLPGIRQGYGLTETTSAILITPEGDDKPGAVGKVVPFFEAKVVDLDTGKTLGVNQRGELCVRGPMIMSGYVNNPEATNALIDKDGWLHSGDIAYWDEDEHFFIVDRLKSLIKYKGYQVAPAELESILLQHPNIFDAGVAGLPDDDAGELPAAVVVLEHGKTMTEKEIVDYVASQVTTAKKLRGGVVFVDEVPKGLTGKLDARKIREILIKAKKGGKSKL

Compound	ATP level after free carboxylic acids [1]	ATP synthesis inhibition (decrease of luminescence) [1]	LogPoct [3]	other results
CCCCCC(=O)O [caproic acid, Hexanoic acid, reference compound]	did not show an increase in the ATP level	–	–	–
CCC(=O)Oc1ccc([N+](=O)[O-])cc1[N+](=O)[O-] [2,4-DNP-C3, 2,4-Dinitrophenol Propionic Acid Ester]	–	higher inhibition effects in comparison to the free 2,4-DNP	1.91 ± 0.24	pIC50 [2]: ~3.70; Ester stability (hydrolysis) [4]: most unstable ester
CCC(=O)O [propionic acid, Propionic acid, reference compound]	did not show an increase in the ATP level	–	–	–
CCCCCCCCCCCCCCCC(=O)Oc1ccc([N+](=O)[O-])cc1[N+](=O)[O-] [2,4-DNP-C16, 2,4-DNP Palmitic Acid Ester]	–	neglectable decrease in the ATP level	5.18 ± 0.79	pIC50 [5]: ~3.70; pIC50 ([6]; 24 h incubation, WST-1, free compounds in 1% DMSO): 3.82 to 4.00
CCCCCC(=O)Oc1ccc([N+](=O)[O-])cc1[N+](=O)[O-] [2,4-DNP-C6, 2,4-Dinitrophenol Caproic Acid Ester]	–	higher inhibition effects in comparison to the free 2,4-DNP; also recorded: sustained inhibition of ATP synthesis	3.07 ± 0.31	pIC50 [2]: ~3.70
O=[N+]([O-])c1ccc(O)c([N+](=O)[O-])c1 [2,4-DNP, 2,4-dinitrophenol]	–	–	1.61 ± 0.30	IC50 at 24 h [5]: 500 to 600 µM; Luciferase activity [7]: did not influence the luciferase activity; pIC50 ([6]; 24 h): ~3.40
CCCCCCCCCCCCCCCC(=O)O [palmitic acid, Palmitic acid, reference compound]	did not show an increase in the ATP level	–	–	–
